This note sets out measurements from ChEMBL document CHEMBL1201862, “PubChem BioAssay data set” (2004).

SMILES strings stand for the structures.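 Method: 48-hour compound exposure of cells in 96-well plates, five concentrations, linear interpolation of endpoints. GI50 is the concentration that inhibits growth by half.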 Calls of active or inactive are those of the source. Rule as the data show it: active = GI50 up to about 1.1 µM and inactive = higher. Some results are limits rather than exact numbers.

Holding throughout (test): NCI anticancer screen, dose series, 48 h
The subject of test [1] is SW-620.
For test [2], the system named is CCRF-CEM.
For test [3], the system named is NCI-H226.
In test [4] the test system is HCT-15.
Test [5] has as its system U-251.
Test [6] deals with HOP-92.
Test [7] deals with 786-0.
Test [8] deals with HOP-62.
Test [9] relates to TK-10.
Test [10] deals with SF-268.
For test [11], the system named is T47D.
The test system of test [12] is NCI/ADR-RES.
In test [13] the test system is SK-OV-3.
For test [14], the system named is SK-MEL-5.
Test [15] has as its system NCI-H460.
Test [16] relates to OVCAR-3.
Test [17] has as its system OVCAR-4.
In test [18] the test system is HCT-116.
Test [19] concerns SR.

With `Cc1[nH]c(C)c(CN(C)C)c1CN(C)C`, the GI50 in test [1] was > 100 µM (inactive); in test [2], > 100 µM (inactive); in test [3], > 100 µM (inactive); in test [4], greater than 100 µM; in [5] it was > 100 µM (inactive); in test [6] it was > 100 µM (inactive). The GI50 in test [7], in test [8], in test [9], in test [10], in [11] and in [12] was > 100 µM (inactive) each time. The GI50 in test [13], in test [14], in test [15], in [16], in test [17] and in test [18] was > 100 µM (inactive) in each case.
Take `CC(=N/NC(N)=S)/C(C)=N/NC(N)=S`: the GI50 in test [1] is > 100 µM (inactive); in [2], > 100 µM (inactive); in [3], > 100 µM (inactive); in [4] it was greater than 100 µM; in [7] it was > 100 µM (inactive); in [8], > 100 µM (inactive). In addition, the GI50 in test [9], in test [10], in test [19], in test [12], in [14] and in test [15] was > 100 µM (inactive) each time. The GI50 in test [16] and in [18] was > 100 µM (inactive) each time.
As to `CCCCCCOc1ccc(C(=O)NOC)cc1`, the GI50 is > 100 µM (inactive) in test [1]; > 100 µM (inactive) in [2]; > 100 µM (inactive) in test [3]; greater than 100 µM in [4]; > 100 µM (inactive) in test [5]; > 100 µM (inactive) in test [6]. Also, the GI50 in test [7] is > 100 µM (inactive); in [8], > 100 µM (inactive); in test [9], > 100 µM (inactive); in [10], > 100 µM (inactive); in test [19], 62.5 µM (inactive); in [12] it was > 100 µM (inactive). Further, the GI50 in test [13], in [14], in test [15], in test [16], in [17] and in test [18] was > 100 µM (inactive) in each case.
`O=c1ccn(C2OC(CN(O)CCC3C(CO)OC(n4ccc(=O)[nH]c4=O)C3O)C(O)C2O)c(=O)[nH]1` (stereo not given): the GI50 in [1] was > 100 µM (inactive); in [2], > 100 µM (inactive); in test [3], > 100 µM (inactive); in [4] it was greater than 100 µM; in test [5], > 100 µM (inactive); in test [6], > 100 µM (inactive). Also, the GI50 in [7], in test [8], in [9], in [10], in [11] and in [12] was > 100 µM (inactive) each time. Moreover, the GI50 in test [13], in [14], in test [15], in test [16], in test [17] and in test [18] was > 100 µM (inactive) in each case.
As for `O=C(NCCC1CN(C(=O)OCc2ccccc2)c2ccccc21)OCc1ccccc1` (stereo not given), the GI50 is > 100 µM (inactive) in test [1]; greater than 100 µM in [4]; > 100 µM (inactive) in test [5]; > 100 µM (inactive) in test [6]; > 100 µM (inactive) in test [7]; > 100 µM (inactive) in test [8]. For the same molecule, the GI50 in test [9] is > 100 µM (inactive); in [10] it was > 100 µM (inactive); in test [12], > 100 µM (inactive); in [13], > 100 µM (inactive); in test [14], > 100 µM (inactive); in [15], 96.8 µM (inactive). Besides, the GI50 in test [16] was > 100 µM (inactive); in [17], > 100 µM (inactive); in test [18] it was 71.9 µM (inactive).
`O=c1nc2ccc3sc4ccccc4c(=O)c3n2c(=O)[nH]1`: the GI50 is > 100 µM (inactive) in [1]; > 100 µM (inactive) in test [2]; > 100 µM (inactive) in test [3]; greater than 100 µM in test [4]; > 100 µM (inactive) in [5]; > 100 µM (inactive) in [7]. Besides, the GI50 in test [8] is > 100 µM (inactive); in [9] it was 66.7 µM (inactive); in test [10], 98.2 µM (inactive); in [19], > 100 µM (inactive); in [12] it was > 100 µM (inactive); in test [14], > 100 µM (inactive). In addition, the GI50 in test [15], in test [16], in test [17] and in test [18] was > 100 µM (inactive) each time.
For the molecule `COc1ccc2nc3cc([N+](=O)[O-])ccc3c(Nc3ccc(S(=O)(=O)NC(C)=O)cc3)c2c1`, the GI50 in test [1] is 46.8 µM (inactive); in test [2], 23.9 µM (inactive); in test [3], > 100 µM (inactive); in test [4], 71.1 µM; in test [5], 44.8 µM (inactive); in [6], > 100 µM (inactive). In addition, the GI50 is 47 µM (inactive) in test [7]; > 100 µM (inactive) in [8]; 53.2 µM (inactive) in test [9]; > 100 µM (inactive) in test [10]; > 100 µM (inactive) in test [11]; 11.5 µM (inactive) in test [19]. The GI50 is > 100 µM (inactive) in test [13]; 16.6 µM (inactive) in test [14]; 40.6 µM (inactive) in test [15]; 38.1 µM (inactive) in test [16]; > 100 µM (inactive) in test [17]; 44 µM (inactive) in test [18].
Turning to `CN1CCN(c2n[nH]c(=O)c3c2nnn3Cc2ccccc2)CC1`, the GI50 in test [2] was > 100 µM (inactive); in test [4], greater than 100 µM; in [5], > 100 µM (inactive); in [6] it was 17.2 µM (inactive); in [7] it was > 100 µM (inactive); in test [8], > 100 µM (inactive). The GI50 in [9], in test [10], in [19], in [12], in test [14] and in [15] was > 100 µM (inactive) throughout. Further, the GI50 in [16], in test [17] and in [18] was > 100 µM (inactive) in each case.
`Cc1ccsc1/C=N/Nc1ncccn1`: the GI50 in test [1] is > 100 µM (inactive); in test [2] it was > 100 µM (inactive); in test [3], > 100 µM (inactive); in test [4] it was greater than 100 µM; in [5], > 100 µM (inactive); in [6], > 100 µM (inactive). Moreover, the GI50 in [7], in [8], in test [9], in test [10], in test [11] and in test [12] was > 100 µM (inactive) throughout. In addition, the GI50 in [13], in test [14], in [16], in [17] and in test [18] was > 100 µM (inactive) in each case.
For the molecule `Clc1ccc(C2=NCON=C2c2ccc(Cl)cc2)cc1`, the GI50 in [1] was 19.9 µM (inactive); in test [2], 24.3 µM (inactive); in [3] it was 14.5 µM (inactive); in test [4], 19.4 µM; in test [5], 18.3 µM (inactive); in [6] it was 18.4 µM (inactive). Further, the GI50 is 19.7 µM (inactive) in test [7]; 25.6 µM (inactive) in [8]; 23.9 µM (inactive) in test [9]; 19.7 µM (inactive) in test [10]; 0.71 µM (active) in test [11]; 21.5 µM (inactive) in test [12]. The GI50 in test [13] is 14.5 µM (inactive); in test [14] it was 16.6 µM (inactive); in test [15], 19.7 µM (inactive); in test [16] it was 15.8 µM (inactive); in test [17], 27.4 µM (inactive); in [18], 13.6 µM (inactive).
As for `N#C/C(=C/c1cccc2ccccc12)C(=O)c1ccccc1`, the GI50 in [1] was 16.8 µM (inactive); in [2] it was 16.6 µM (inactive); in test [3], 17.7 µM (inactive); in test [4], 19 µM; in test [5], 19 µM (inactive); in test [7], 16.3 µM (inactive). In addition, the GI50 in test [8] was 18.3 µM (inactive); in test [9], 35.4 µM (inactive); in test [19] it was 26.9 µM (inactive); in test [13], > 100 µM (inactive); in test [14], > 10 µM (inactive); in [15], 27.5 µM (inactive). For the same molecule, the values for the GI50 in test [16], in test [17] and in [18] were 48.6 µM (inactive), > 100 µM (inactive) and 18.5 µM (inactive), respectively.
On to `COc1cc(/C=c2/c3ccccc3n3c2cc(-c2ccccc2)[n+]3C)cc(OC)c1OC`, for which the GI50 is 3.82 µM (inactive) in test [1]; 3.52 µM (inactive) in test [2]; 7.94 µM (inactive) in test [3]; 4.39 µM in test [4]; 3.7 µM (inactive) in test [5]; 3.48 µM (inactive) in [6]. Further, the GI50 was 4.06 µM (inactive) in test [7]; 5.47 µM (inactive) in test [8]; 5.33 µM (inactive) in test [9]; 6.73 µM (inactive) in [10]; 4.06 µM (inactive) in test [11]; > 100 µM (inactive) in test [12]. Further, the GI50 in test [13] is 5.92 µM (inactive); in test [14], 2.69 µM (inactive); in test [15] it was 4.58 µM (inactive); in test [16], 2.43 µM (inactive); in test [17] it was 3.46 µM (inactive); in test [18] it was 2.62 µM (inactive).
